Measurements: patent US8912315B2, “Purkinje cell-tropic viral vector” (Japan Science and Technology Agency, priority 2006, dated 2014)

Tested on: HeLa cells
Assay type: cell-based
Details: viruses generated in HEK293T cells with the named serum or protease inhibitor, Table 3; TU/ml

Molecule	Titer × 10^9
COc1ccc(S(=O)(=O)N(Cc2cccnc2)[C@@H](C(=O)NO)C(C)C)cc1 [CGS 27023A]	3.4 ± 1.4 × 10^9
TIMP-1: metallo proteinase inhibitor added to medium during virus generation	6.3 × 10^9
